Peptide text beside a SMILES is read from it.
Test system: Staphylococcus epidermidis ATCC 12228
Assay: Quantitative suspension test, bactericidal activity, BS EN 1276:2019
Format: cell-based
Parameters: key to Bactericidal activity verdict: Active: For bacteria: ACTIVE if log R ≥ 5 according to BS EN 1276:2019; Not active: For bacteria: ACTIVE if log R ≥ 5 according to BS EN 1276:2019
Details: 60 min, 37 °C, BSA 0.3 g/L
Excerpt: The method is based on the suspension test according to BS EN 1276:2019, which specifies a quantitative suspension analysis for the evaluation of the bactericidal activity of chemical disinfectants and antiseptics used in food, industrial, domestic, and institutional areas against a panel of microorganisms under conditions that more closely simulate practical use. Briefly, S. aureus ATCC 6538, P. aeruginosa ATCC 15442, and Staphylococcus epidermidis ATCC 12228 were used as test organisms at a bacterial concentration of 1.0 × 10^8 colony-forming units (CFU) per mL (CFU/mL). In the test, BSA (Bovine Serum Albumin) (0.3 g/L) was used as an interfering substance to mimic clean conditions. […] The reaction mixture was incubated at 37 °C for 60 min before transferring each sample to a tube containing a neutralizer solution consisting of 30 g/L polysorbate 80, 1 g/L sodium thiosulfate, 3 g/L lecithin, 1 g/L tryptone, 8.5 g/L NaCl, 100 mL/L phosphate buffer and water. The negative control (untreated cells) was prepared using PBS instead of biocides. The solutions were then plated onto Tryptone Soy Agar (TSA) and incubated at 37 °C for 48 h to determine the logarithmic CFU/mL reduction, according to the following Equation:(2) log R = log (N0) − log (Na) where R refers to the reduction in viability, N refers to the number of CFU/mL in the test mixture at the beginning of the contact time, and Na refers to the number of CFU/mL in the test mixture at the end of the contact time. […] The test method and the minimum requirements for fungicidal activity of chemical disinfectant and antiseptic products were performed according to BS EN 1650:2019. The fungicidal activity was studied using the vegetative cells of Candida albicans ATCC 10231 and the spores of Aspergillus brasiliensis ATCC 16404 as test organisms. […] The mixture was maintained at 37 °C for a contact time of 60 min. At the end of this contact time, an aliquot was taken, and the fungicidal activity was immediately neutralized with a solution consisting of 30 g/L polysorbate 80, 1 g/L sodium thiosulfate, 3 g/L lecithin, 1 g/L tryptone, 8.5 g/L NaCl, 100 mL/L phosphate buffer and water. The samples were then plated onto malt extract agar (MEA) and incubated at 30 °C for 48 h to determine the numbers of surviving fungi as the logarithmic CFU/mL reduction, calculated according to Equation (2).

## CC[C@H](C)[C@H](NC(=O)[C@H](Cc1c[nH]c2ccccc12)NC(=O)[C@H](CCCCN)NC(=O)[C@@H](N)CCCNC(=N)N)C(=O)N[C@@H](CC(C)C)C(=O)N[C@@H](CCCCN)C(=O)N[C@@H](Cc1c[nH]c2ccccc12)C(=O)N[C@@H](CC(C)C)C(=O)N[C@@H](CCCNC(=N)N)C(=O)N[C@H](C(=O)N[C@@H](Cc1c[nH]c2ccccc12)C(=O)N[C@@H](CCCCN)C(=O)N[C@@H](CCCCN)C(N)=O)[C@@H](C)O [RKW] (H-RKWILKWLRTWKK-NH2; N-terminus assumed)
RKW 5 µM
  Bactericidal activity verdict: Na = 3.70 × 10^2 log Na = 2.57 log R = 4.71 Not active
  Na (CFU/mL at the end of the contact time): 3.70 × 10^2 CFU/mL
RKW 10 µM
  Bactericidal activity verdict: Na = 2.40 × 10^2 log Na = 2.38 log R = 4.90 Not active
  Na (CFU/mL at the end of the contact time): 2.40 × 10^2 CFU/mL
RKW 20 µM
  Bactericidal activity verdict: Na = 1.60 × 10^2 log Na = 2.20 log R = 5.08 Active
  Na (CFU/mL at the end of the contact time): 1.60 × 10^2 CFU/mL
RKW 50 µM
  Bactericidal activity verdict: Na = 1.60 × 10^2 log Na = 2.20 log R = 5.08 Active
  Na (CFU/mL at the end of the contact time): 1.60 × 10^2 CFU/mL
RKW 100 µM
  Bactericidal activity verdict: Na = 1.60 × 10^2 log Na = 2.20 log R = 5.08 Active
  Na (CFU/mL at the end of the contact time): 1.60 × 10^2 CFU/mL
